Data on eight compounds can be found in ChEMBL document CHEMBL3046062, “Anti-HIV, antimycobacterial and antimicrobial studies of newly synthesized 1,2,4-triazole clubbed benzothiazoles” (Med Chem Res, 2013).

Converted amounts (≈) assume the structure as drawn. Bounds are passed on as bounds.

A short description of data set [1]: Cytotoxicity against Homo sapiens (human) MT4 cells after 5 days by MTT assay. It counts as cell-based.
The nature of data set [2]: Selectivity index, ratio of CC50 for human MT4 cells to IC50 for HIV1 3B. It counts as functional.
Data set [3] has as its system Streptococcus pyogenes. The data set is described as follows: Antibacterial activity against Streptococcus pyogenes MTCC 443 after overnight incubation by broth microdilution method. The data set is classed as functional.
In data set [4] the test system is Escherichia coli. Nature of the data set: Antibacterial activity against Escherichia coli MTCC 442 after overnight incubation by broth microdilution method. The data set is classed as functional.
For data set [5], the system named is Human immunodeficiency virus 1. Nature of the data set: Antiviral activity against Human immunodeficiency virus 1 IIIB infected MT4 cells assessed as inhibition of virus-induced cytopathogenicity after 5 days by MTT assay. It counts as functional, organism-based. Particulars: MT4, 120 h.
Data set [6] has as its system Staphylococcus aureus. Nature of the data set: Antibacterial activity against Staphylococcus aureus MTCC 96 after overnight incubation by broth microdilution method. It counts as functional.
Data set [7] relates to Pseudomonas aeruginosa. Nature of the data set: Antibacterial activity against Pseudomonas aeruginosa MTCC 2488 after overnight incubation by broth microdilution method. It counts as functional.
For data set [8], the system named is Mycobacterium tuberculosis. The data set is described as follows: Antitubercular activity against Mycobacterium tuberculosis H37Rv after 28 days by Lowenstein-Jensen agar method. It counts as functional. Particulars: 672 h.
Data set [9] relates to Mycobacterium tuberculosis. The data set is described as follows: Growth inhibition of Mycobacterium tuberculosis H37Rv at MIC after 28 days by Lowenstein-Jensen agar method. It counts as functional.
The subject of data set [10] is Human immunodeficiency virus 2. Nature of the data set: Antiviral activity against Human immunodeficiency virus type 2 (ISOLATE ROD) infected MT4 cells assessed as inhibition of virus-induced cytopathogenicity after 5 days by MTT assay. It counts as functional, organism-based. The conditions noted are these: Human immunodeficiency virus 2, ISOLATE ROD, MT4, 120 h.

Data set [11] concerns Aspergillus clavatus. The data set is described as follows: Antifungal activity against Aspergillus clavatus MTCC 323 after overnight incubation by broth microdilution method. The data set is classed as functional.
Data set [12] in a line: Selectivity index, ratio of CC50 for human MT4 cells to IC50 for HIV2 ROD. The data set is classed as functional.
Data set [13] relates to Aspergillus niger. The data set is described as follows: Antifungal activity against Aspergillus niger MTCC 282 after overnight incubation by broth microdilution method. It counts as functional.
For data set [14], the system named is Candida albicans. The data set is described as follows: Antifungal activity against Candida albicans MTCC 227 after overnight incubation by broth microdilution method. The data set is classed as functional.

Consider `Clc1ccc(-c2nnc(-c3cccnc3)o2)cc1`, for which, in data set [1], it took 4.49 µg/mL (≈ 17.4 µM) to reach half-maximal cytotoxicity (CC50 at 120 h). Besides, the “Ratio CC50/IC50” value in [2] and in data set [12] was below 1 in each case. The MIC99 was found to be 250 µg/mL (≈ 970 µM) in data set [3]; 500 µg/mL (≈ 1940 µM) in [4]; 200 µg/mL (≈ 776 µM) in data set [6]; 500 µg/mL (≈ 1940 µM) in data set [7]; 1000 µg/mL (≈ 3880 µM) in data set [11]; 1000 µg/mL (≈ 3880 µM) in data set [13]. Moreover, the MIC99 in [14] worked out at 500 µg/mL (≈ 1940 µM). The IC50 in data set [5] and in data set [10] was above 4.49 µg/mL in each case. 500 µg/mL (≈ 1940 µM) was the least that counted as inhibitory in data set [8] (MIC). Also, in data set [9], the “growth inhibition (GI)” value is reported as 98%.

Compound `Clc1ccc(-c2nnc(-c3cccnc3)n2Nc2nc3ccc(Cl)cc3s2)cc1` came in with a CC50 at 120 h in data set [1] of 54.3 µg/mL (≈ 124 µM). The “Ratio CC50/IC50” value in data set [2] and in data set [12] was below 1 each time. The MIC99 is 500 µg/mL (≈ 1140 µM) in [3]; 1000 µg/mL (≈ 2280 µM) in [4]; 250 µg/mL (≈ 569 µM) in data set [6]; 500 µg/mL (≈ 1140 µM) in data set [7]; 1000 µg/mL (≈ 2280 µM) in [11]; 500 µg/mL (≈ 1140 µM) in [13]. Further, in data set [14], the MIC99 was determined as 100 µg/mL (≈ 228 µM). Moreover, the IC50 in [5] and in [10] was above 54.3 µg/mL throughout. The compound also registered an MIC in [8] of 250 µg/mL (≈ 569 µM). The “growth inhibition (GI)” value in [9] amounted to 96%.

Regarding `Clc1ccc(-c2nnc(-c3cccnc3)n2Nc2nc3cc(Cl)c(Cl)cc3s2)cc1`, the CC50 at 120 h in [1] is 52.1 µg/mL (≈ 110 µM). The “Ratio CC50/IC50” value in [2] and in data set [12] was below 1 throughout. Besides, the MIC99 in [3] worked out at 500 µg/mL (≈ 1060 µM); in data set [4] it was 500 µg/mL (≈ 1060 µM); in data set [6], 500 µg/mL (≈ 1060 µM); in [7], 250 µg/mL (≈ 528 µM); in data set [11] it was 1000 µg/mL (≈ 2110 µM); in data set [13], 250 µg/mL (≈ 528 µM). Moreover, the MIC99 in [14] came out at 250 µg/mL (≈ 528 µM). Moreover, the IC50 in data set [5] and in [10] was above 52.1 µg/mL throughout. The compound further yielded an MIC in [8] of 250 µg/mL (≈ 528 µM). The “growth inhibition (GI)” value in data set [9] was 98%.

The compound `O=[N+]([O-])c1cccc2sc(Nn3c(-c4ccc(Cl)cc4)nnc3-c3cccnc3)nc12` showed a CC50 at 120 h in [1] of 21.3 µg/mL (≈ 47.4 µM). Besides, the “Ratio CC50/IC50” value in data set [2] and in [12] was below 1 each time. Further, the MIC99 in data set [3] was found to be 250 µg/mL (≈ 556 µM); in [4] it was 100 µg/mL (≈ 222 µM); in data set [6], 200 µg/mL (≈ 445 µM); in data set [7], 125 µg/mL (≈ 278 µM); in data set [11], 500 µg/mL (≈ 1110 µM); in [13] it was 500 µg/mL (≈ 1110 µM). This compound had an MIC99 in data set [14] of 100 µg/mL (≈ 222 µM). The IC50 in data set [5] and in data set [10] was above 21.3 µg/mL in each case. This compound also came in with an MIC in data set [8] of 500 µg/mL (≈ 1110 µM). The “growth inhibition (GI)” value in data set [9] is listed as 97%.

Turning to `COc1ccc2nc(Nn3c(-c4ccc(Cl)cc4)nnc3-c3cccnc3)sc2c1`, it took 66.8 µg/mL (≈ 154 µM) to reach half-maximal cytotoxicity in data set [1] (CC50 at 120 h). The “Ratio CC50/IC50” value in data set [2] and in data set [12] was below 1 in each case. In addition, the MIC99 in data set [3] turned out to be 500 µg/mL (≈ 1150 µM); in data set [4], 500 µg/mL (≈ 1150 µM); in [6], 500 µg/mL (≈ 1150 µM); in data set [7] it was 250 µg/mL (≈ 575 µM); in data set [11], 500 µg/mL (≈ 1150 µM); in data set [13], 500 µg/mL (≈ 1150 µM). This compound also gave an MIC99 in data set [14] of 250 µg/mL (≈ 575 µM). In addition, the IC50 in data set [5] and in data set [10] was above 66.8 µg/mL throughout. In addition, 500 µg/mL (≈ 1150 µM) was the least that counted as inhibitory in [8] (MIC). Moreover, the “growth inhibition (GI)” value in [9] is 98%.

Consider `Clc1ccc(-c2nnc(-c3cccnc3)n2Nc2nc3ccc(Br)cc3s2)cc1`, for which the midpoint of cytotoxicity in data set [1], the CC50 at 120 h, lay at 29.6 µg/mL (≈ 61.2 µM). For the same compound, the “Ratio CC50/IC50” value in [2] and in data set [12] was below 1 throughout. The MIC99 came to 1000 µg/mL (≈ 2070 µM) in data set [3]; 500 µg/mL (≈ 1030 µM) in data set [4]; 500 µg/mL (≈ 1030 µM) in data set [6]; 500 µg/mL (≈ 1030 µM) in data set [7]; 1000 µg/mL (≈ 2070 µM) in data set [11]; 500 µg/mL (≈ 1030 µM) in data set [13]. This compound also had an MIC99 in [14] of 100 µg/mL (≈ 207 µM). Also, the IC50 in data set [5] and in data set [10] was above 29.6 µg/mL in each case. The same compound came in with an MIC in [8] of 500 µg/mL (≈ 1030 µM). Moreover, the “growth inhibition (GI)” value in data set [9] is on record as 96%.

In the case of `Cc1cccc2sc(Nn3c(-c4ccc(Cl)cc4)nnc3-c3cccnc3)nc12`, in data set [1], the CC50 at 120 h came out at 36.5 µg/mL (≈ 87 µM). Also, the “Ratio CC50/IC50” value in [2] and in data set [12] was below 1 throughout. Besides, the MIC99 in data set [3] stood at 1000 µg/mL (≈ 2390 µM); in [4], 500 µg/mL (≈ 1190 µM); in data set [6], 100 µg/mL (≈ 239 µM); in data set [7] it was 250 µg/mL (≈ 597 µM); in [11], 500 µg/mL (≈ 1190 µM); in [13], 500 µg/mL (≈ 1190 µM). Moreover, the MIC99 in [14] turned out to be 200 µg/mL (≈ 477 µM). Further, the IC50 in data set [5] and in data set [10] was above 36.4 µg/mL each time. Besides, in data set [8], the MIC was 50 µg/mL (≈ 119 µM). Besides, in data set [9], the “growth inhibition (GI)” value was determined as 95%.

The compound `Cc1ccc2nc(Nn3c(-c4ccc(Cl)cc4)nnc3-c3cccnc3)sc2c1` displayed a CC50 at 120 h in [1] of 75.5 µg/mL (≈ 180 µM). Moreover, the “Ratio CC50/IC50” value in data set [2] and in [12] was below 1 each time. Also, the MIC99 in data set [3] stood at 500 µg/mL (≈ 1190 µM); in data set [4] it was 500 µg/mL (≈ 1190 µM); in [6], 500 µg/mL (≈ 1190 µM); in data set [7], 500 µg/mL (≈ 1190 µM); in data set [11], 1000 µg/mL (≈ 2390 µM); in [13], 1000 µg/mL (≈ 2390 µM). Also, the MIC99 in data set [14] was 1000 µg/mL (≈ 2390 µM). Also, the IC50 in data set [5] and in data set [10] was above 75.5 µg/mL throughout. The lowest concentration to inhibit growth in data set [8] (MIC) was 50 µg/mL (≈ 119 µM). In [9], the “growth inhibition (GI)” value is listed as 95%.
